Measurements reported in PubChem BioAssay AID1845204 (Molecular Pharmacology Branch, DTP, NCI, 2023).

Tested on: HSSY-II tumor spheroid viability
Assay: Anticancer human tumor HSSY-II cell line growth inhibition;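 note: spheroids exposed to compounds for seven days before reading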;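 for viability, T/C: percent of DMSO vehicle control viability so 100% = untreated level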
Settings: spheroids with HUVEC and MSC; for IC50: curve of first compound; for viability, T/C: stronger effect = lower value
Procedure, shortened: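 Complex tumor spheroids combined malignant cells with endothelial cells and mesenchymal stem cells. DNA-damaging drugs and DNA repair inhibitors were tested alone and in combination, at half-log dilutions down from clinical Cmax (top 10 microM if Cmax unknown), 0.25% DMSO final.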

Compound: Cc1cc(C)c(CNC(=O)c2cc(-c3ccc(CN4CCOCC4)cc3)cc3c2cnn3C2CCCC2)c(=O)[nH]1 + Cn1nnc2c(C(N)=O)ncn2c1=O
- IC50 (second compound 1 µM): > 10000 nM
- IC50 (second compound 3.16 µM): > 10000 nM
- IC50 (second compound 10 µM): > 10000 nM
- IC50 (second compound 31.6 µM): > 10000 nM
- IC50 (second compound 100 µM): > 10000 nM
- viability, T/C (second compound 1 µM, first compound 0.0316 µM): 98.4%
- viability, T/C (second compound 1 µM, first compound 0.1 µM): 105%
- viability, T/C (second compound 1 µM, first compound 0.316 µM): 92.8%
- viability, T/C (second compound 1 µM, first compound 1 µM): 97.2%
- viability, T/C (second compound 1 µM, first compound 3.16 µM): 91.4%
- viability, T/C (second compound 1 µM, first compound 10 µM): 79.8%
- viability, T/C (second compound 3.16 µM, first compound 0.0316 µM): 101%
- viability, T/C (second compound 3.16 µM, first compound 0.1 µM): 99.1%
- viability, T/C (second compound 3.16 µM, first compound 0.316 µM): 95.1%
- viability, T/C (second compound 3.16 µM, first compound 1 µM): 98.7%
- viability, T/C (second compound 3.16 µM, first compound 3.16 µM): 89.9%
- viability, T/C (second compound 3.16 µM, first compound 10 µM): 72.7%
- viability, T/C (second compound 10 µM, first compound 0.0316 µM): 98%
- viability, T/C (second compound 10 µM, first compound 0.1 µM): 98.2%
- viability, T/C (second compound 10 µM, first compound 0.316 µM): 100%
- viability, T/C (second compound 10 µM, first compound 1 µM): 93.5%
- viability, T/C (second compound 10 µM, first compound 3.16 µM): 92.6%
- viability, T/C (second compound 10 µM, first compound 10 µM): 68.4%
- viability, T/C (second compound 31.6 µM, first compound 0.0316 µM): 104%
- viability, T/C (second compound 31.6 µM, first compound 0.1 µM): 98%
- viability, T/C (second compound 31.6 µM, first compound 0.316 µM): 94.4%
- viability, T/C (second compound 31.6 µM, first compound 1 µM): 102%
- viability, T/C (second compound 31.6 µM, first compound 3.16 µM): 88.4%
- viability, T/C (second compound 31.6 µM, first compound 10 µM): 73.8%
- viability, T/C (second compound 100 µM, first compound 0.0316 µM): 94%
- viability, T/C (second compound 100 µM, first compound 0.1 µM): 93.9%
- viability, T/C (second compound 100 µM, first compound 0.316 µM): 91%
- viability, T/C (second compound 100 µM, first compound 1 µM): 95.5%
- viability, T/C (second compound 100 µM, first compound 3.16 µM): 85.2%
- viability, T/C (second compound 100 µM, first compound 10 µM): 70.4%

Compound: COc1ccc([C@@H](O)c2cc(-c3ncnc4cc(N5CCOCC5)ccc34)c(F)cc2Cl)nn1 + COc1cc2c(cc1O)CCNC21CSC2c3c(OC(C)=O)c(C)c4c(c3C(COC1=O)N1C(O)C3Cc5cc(C)c(OC)c(O)c5C(C21)N3C)OCO4
- IC50 (second compound 30 pM): 1670 nM
- IC50 (second compound 94.9 pM): 686 nM
- IC50 (second compound 0.0003 µM): < 31.6 nM
- IC50 (second compound 0.000949 µM): < 31.6 nM
- IC50 (second compound 0.003 µM): < 31.6 nM
- viability, T/C (second compound 30 pM, first compound 0.0316 µM): 117%
- viability, T/C (second compound 30 pM, first compound 0.1 µM): 114%
- viability, T/C (second compound 30 pM, first compound 0.316 µM): 93.3%
- viability, T/C (second compound 30 pM, first compound 1 µM): 67.1%
- viability, T/C (second compound 30 pM, first compound 3.16 µM): 29.7%
- viability, T/C (second compound 30 pM, first compound 10 µM): 6.65%
- viability, T/C (second compound 94.9 pM, first compound 0.0316 µM): 101%
- viability, T/C (second compound 94.9 pM, first compound 0.1 µM): 93.8%
- viability, T/C (second compound 94.9 pM, first compound 0.316 µM): 75.6%
- viability, T/C (second compound 94.9 pM, first compound 1 µM): 38.6%
- viability, T/C (second compound 94.9 pM, first compound 3.16 µM): 7.08%
- viability, T/C (second compound 94.9 pM, first compound 10 µM): 1.86%
- viability, T/C (second compound 0.0003 µM, first compound 0.0316 µM): 16.7%
- viability, T/C (second compound 0.0003 µM, first compound 0.1 µM): 10.5%
- viability, T/C (second compound 0.0003 µM, first compound 0.316 µM): 7.96%
- viability, T/C (second compound 0.0003 µM, first compound 1 µM): 3.36%
- viability, T/C (second compound 0.0003 µM, first compound 3.16 µM): 0.77%
- viability, T/C (second compound 0.0003 µM, first compound 10 µM): 0.17%
- viability, T/C (second compound 0.000949 µM, first compound 0.0316 µM): 2.36%
- viability, T/C (second compound 0.000949 µM, first compound 0.1 µM): 2.67%
- viability, T/C (second compound 0.000949 µM, first compound 0.316 µM): 0.85%
- viability, T/C (second compound 0.000949 µM, first compound 1 µM): 0.08%
- viability, T/C (second compound 0.000949 µM, first compound 3.16 µM): 0.11%
- viability, T/C (second compound 0.000949 µM, first compound 10 µM): 0.22%
- viability, T/C (second compound 0.003 µM, first compound 0.0316 µM): 0.22%
- viability, T/C (second compound 0.003 µM, first compound 0.1 µM): 0.26%
- viability, T/C (second compound 0.003 µM, first compound 0.316 µM): 0.22%
- viability, T/C (second compound 0.003 µM, first compound 1 µM): 0.24%
- viability, T/C (second compound 0.003 µM, first compound 3.16 µM): 0.25%
- viability, T/C (second compound 0.003 µM, first compound 10 µM): 0.34%
